Data taken from publication PMC6269910 (Molecules, 2013).
Values joined by “and” are separate entries in the source; they are usually repeats but may differ in a detail not shown here. Equal values may be shown once. Read-outs that look alike come from different tables or passages of the source. Values belong to the molecule of their own block, whether it stands above or below them.

Key:
[1] = tested on: acetic acid-induced abdominal constriction; experiment: Acetic acid-induced writhing (Koster) test; assay type: in vivo, mice
Experimental: Test samples, suspended in a mixture of distilled water and 0.5% sodium carboxymethyl cellulose (CMC), were given orally to the animals. The control group animals received the same experimental handling as those of the test groups, except that the drug treatment was replaced with appropriate volumes of the dosing vehicle. […] One hour after oral administration of test sample, each mouse was injected intraperitoneally with 3% (w/v) acetic acid solution (0.1 mL/10 g, bw). Starting 5 min after the acetic acid injection, the number of muscular contractions on mice were counted for a period of 10 min. A significant reduction in the number of writhings by any treatment as compared to the number of writhings in control animals was considered a positive analgesic response. The analgesic activity was expressed as a percentage change from writhing controls. ASA was used as a reference compound and administered at 200 mg/kg.

stomach = experiment: Gastric-ulcerogenic effect (ulcer score); assay type: in vivo, mice
[2] = tested on: lipid peroxidation in stomach; experiment: Lipid peroxidation in stomach (TBARS); assay type: in vivo, mice
[3] = tested on: carrageenan-induced hind paw edema; experiment: Carrageenan-induced hind paw edema model; assay type: in vivo, mice
Experimental: Locally bred balb/c mice of both sexes (30-35 g) were purchased from the animal breeding laboratories of Inonu University ([…], Turkey). The animals were fed a standard pellet diet and water ad libitum in a temperature-controlled room. On the day before the treatments, food was withdrawn, but the animals were allowed free access of water. The allocation of animals to different groups was randomized, and the experiments were carried out under blind conditions. Mice used in the present study were cared for in accordance with the directory of the Inonu University Animal Care Unit, which applies the guidelines of the National Institutes of Health on laboratory animal welfare. Procedures involving animals and their care were conducted in conformity with international laws and policies and animal studies accepted by Inonu University Ethical Council (2011/A17). Test samples, suspended in a mixture of distilled water and 0.5% sodium carboxymethyl cellulose (CMC), were given orally to the animals. The control group animals received the same experimental handling as those of the test groups, except that the drug treatment was replaced with appropriate volumes of the dosing vehicle. […] For the preliminary activity screening, each test group was composed of four mice. […] Because of the daily changing circumstance, we used another control group for each experiment. For the determination of the effects on carrageenan-induced paw oedema, the modified method of Kasahara et al. was employed. One hour after the oral administration of either test sample or dosing vehicle, each mouse was injected with a freshly prepared (0.5 mg/25 μL) suspension of carrageenan (Sigma, St. Louis, MO, USA) in physiological saline (154 mM NaCl). The subplantar tissue of the right hind paw was the injection site for all mice. The contralateral paw (left hind paw) was injected with 25 μL saline solution as the internal control. […] The difference in footpad thickness between the right and left foot indicated the degree of inflammation for each mouse. The change in paw volume, either increase or decrease, was calculated and compared with the control group (dosing vehicle) and analyzed using statistical methods.

LPO = LPO (TBARS) level in liver, kidney, colon, brain; assay type: in vivo, mice; settings: celecoxib 25 mg/kg oral, 72 h
Experimental: (§1) Tissue samples were homogenized with ice-cold 150 mM KCl for the determination of LPO and glutathione (GSH) levels. The LPO levels were assayed by monitoring TBARS formation as described above.

myeloperoxidase (MPO) = experiment: MPO activity in liver, kidney, colon, brain; assay type: in vivo, mice; settings: celecoxib 25 mg/kg oral, 72 h
Experimental: MPO is an enzyme that is found predominantly in the azurophilic granules of polymorphonuclear leukocytes (PMN). […] MPO activity was measured in tissues in a procedure similar to that documented by […] et al.

glutathione (GSH) = experiment: GSH level in liver, kidney, colon, brain; assay type: in vivo, mice; settings: celecoxib 25 mg/kg oral, 72 h
Experimental: as §1

[4] = tested on: superoxide dismutase (SOD); experiment: SOD activity in liver, kidney, colon, brain; assay type: in vivo, mice; settings: celecoxib 25 mg/kg oral, 72 h
Experimental: SOD is a major antioxidant enzyme found in cells, which protect cells from oxidative stress. SOD activity in the tissue samples was measured according to the previously described method.

[5] = target: T1, HCV NS5B RNA dependent RNA polymerase (Hepatitis C virus genotype 1b, UniProt P26663); experiment: NS5B inhibition assay (primer dependent elongation, poly rA-U12); assay type: biochemical; settings: for IC50: dose-response, 8–12 concentrations
T1 construct: HCV NS5B RNA dependent RNA polymerase activity
Experimental: The compounds 1a–e and 2a–e were reconstituted in DMSO as 50 mM stocks, and serially diluted in DMSO to obtain working stocks. Wedelolactone, a known inhibitor of HCV NS5B activity, was employed as a reference compound. Preliminary screening was carried out at 100 μM to identify a wider range of compounds.
All synthesized compounds were evaluated for their effect on HCV NS5B RNA dependent RNA polymerase activity in primer dependent elongation assays as previously described. Activity of NS5B in the absence of the inhibitor but containing an equivalent amount of DMSO (control reaction) was set at 100% and that in the presence of the inhibitor was quantified relative to this control.

[6] = brain, series with 1a 100 mg/kg
[7] = brain, series with 1a 200 mg/kg
[8] = colon, series with 1a 100 mg/kg
[9] = colon, series with 1a 200 mg/kg
[10] = kidney, series with 1a 100 mg/kg
[11] = kidney, series with 1a 200 mg/kg
[12] = liver, series with 1a 100 mg/kg
[13] = liver, series with 1a 200 mg/kg
[14] = read-out: Anti-NS5B Activity (% Inh., 100 µM)

T1 sequence (P26663 2420-3010): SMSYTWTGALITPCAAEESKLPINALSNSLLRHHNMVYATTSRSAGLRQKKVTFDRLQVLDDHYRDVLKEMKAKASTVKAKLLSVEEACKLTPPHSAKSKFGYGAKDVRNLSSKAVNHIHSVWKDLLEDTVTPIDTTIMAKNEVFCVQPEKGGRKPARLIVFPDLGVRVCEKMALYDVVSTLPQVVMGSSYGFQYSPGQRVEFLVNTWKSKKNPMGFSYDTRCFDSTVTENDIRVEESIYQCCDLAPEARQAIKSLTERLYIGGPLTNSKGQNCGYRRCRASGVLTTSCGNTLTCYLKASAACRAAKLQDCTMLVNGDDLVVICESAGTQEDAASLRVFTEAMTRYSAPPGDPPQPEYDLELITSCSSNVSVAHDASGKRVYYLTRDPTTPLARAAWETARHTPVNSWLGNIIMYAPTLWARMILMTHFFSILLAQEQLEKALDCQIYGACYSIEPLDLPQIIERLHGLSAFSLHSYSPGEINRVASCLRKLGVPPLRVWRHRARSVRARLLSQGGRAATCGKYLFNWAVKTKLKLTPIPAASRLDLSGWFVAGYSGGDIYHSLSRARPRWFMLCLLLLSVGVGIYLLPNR

Structure (SMILES): CC(=O)Oc1ccccc1C(=O)O [ASA, acetylsalicylic acid, reference compound]
Writhing test (% inh.) ([1]; 200 mg/kg oral): 74.7%
Writhing test (Mean ± SEM) ([1]; 200 mg/kg oral): 4.4 ± 0.9
Ulcer score (stomach; ASA 200 mg/kg): 3/5
Lipid peroxidation ([2]; ASA 200 mg/kg): 436.1 ± 17.1 nmol TBARS/g wet weight

Structure (SMILES): Cc1ccc(-c2cc(C(F)(F)F)nn2-c2ccc(S(N)(=O)=O)cc2)cc1 [Celecoxib, 4-[5-(4-methylphenyl)-3-(trifluoromethyl)-1H-pyrazole-1-yl]benzene-sulfonamide, reference compound]
Swelling in thickness ± SEM ([3]; 25 mg/kg per os, 90 min): 57.0 ± 6.9 × 10^−2 mm
Swelling in thickness ± SEM ([3]; 25 mg/kg per os, 180 min): 42.0 ± 3.3 × 10^−2 mm
percent inhibitory activity ([3]; 25 mg/kg per os, 180 min): 54.3%
Swelling in thickness ± SEM ([3]; 25 mg/kg per os, 270 min): 94.0 ± 10.4 × 10^−2 mm
Swelling in thickness ± SEM ([3]; 25 mg/kg per os, 360 min): 103.0 ± 7.5 × 10^−2 mm
Writhing test (% inh.) ([1]; 25 mg/kg oral): 54%
Writhing test (Mean ± SEM) ([1]; 25 mg/kg oral): 8.0 ± 1.3
Ulcer score (stomach; celecoxib 25 mg/kg): 0/5
Lipid peroxidation ([2]; celecoxib 25 mg/kg): 417.8 ± 23.3 nmol TBARS/g wet weight
LPO (LPO; [6]): 8.18 ± 2.16 nmol/g tissue
LPO (LPO; [7]): 8.26 ± 1.01 nmol/g tissue
LPO (LPO; [8]): 7.12 ± 0.26 nmol/g tissue
LPO (LPO; [9]): 10.48 ± 2.69 nmol/g tissue
LPO (LPO; [10]): 11.12 ± 2.41 nmol/g tissue
LPO (LPO; [11]): 11.30 ± 2.52 nmol/g tissue
LPO (LPO; [12]): 9.56 ± 1.80 nmol/gtissue
LPO (LPO; [13]): 11.74 ± 2.25 nmol/gtissue
MPO (myeloperoxidase (MPO); [6]): 0.60 ± 0.23 U/gtissue
MPO (myeloperoxidase (MPO); [7]): 1.48 ± 0.46 U/gtissue
MPO (myeloperoxidase (MPO); [8]): 0.52 ± 0.26 U/gtissue
MPO (myeloperoxidase (MPO); [9]): 0.46 ± 0.26 U/gtissue
MPO (myeloperoxidase (MPO); [10]): 3.36 ± 1.57 U/g tissue
MPO (myeloperoxidase (MPO); [11]): 4.75 ± 1.59 U/g tissue
MPO (myeloperoxidase (MPO); [12]): 0.63 ± 0.30 U/gtissue
MPO (myeloperoxidase (MPO); [13]): 0.19 ± 0.06 U/gtissue
GSH (glutathione (GSH); [6]): 22.36 ± 2.45 µmol/g tissue
GSH (glutathione (GSH); [7]): 20.2 ± 3.26 µmol/g tissue
GSH (glutathione (GSH); [8]): 28.06 ± 1.45 µmol/g tissue
GSH (glutathione (GSH); [9]): 26.42 ± 3.46 µmol/g tissue
GSH (glutathione (GSH); [10]): 22.24 ± 4.17 µmol/g tissue
GSH (glutathione (GSH); [11]): 21.68 ± 5.56 µmol/g tissue
GSH (glutathione (GSH); [12]): 20.58 ± 4.25 µmol/g tissue
GSH (glutathione (GSH); [13]): 22.14 ± 1.04 µmol/g tissue
SOD [4, 6]: 24.84 ± 10.65 U/g tissue
SOD [4, 7]: 20.41 ± 13.73 U/g tissue
SOD [4, 8]: 16.85 ± 5.24 U/g tissue
SOD [4, 9]: 19.04 ± 5.60 U/g tissue
SOD [4, 10]: 17.79 ± 7.47 U/g tissue
SOD [4, 11]: 16.83 ± 9.71 U/g tissue
SOD [4, 12]: 22.78 ± 14.45 U/g tissue
SOD [4, 13]: 13.60 ± 11.98 U/g tissue
Anti-NS5B Activity (% Inh., 100 µM) ([5]; 100 µM): 9.5%
inhibition at 100 µM ([5]; read-out: Anti-NS5B Activity (% Inh., 100 µM), 100 µM): ~10%

Structure (SMILES): Cc1ccc(-c2cc(C(F)(F)F)nn2-c2ccc(S(=O)(=O)NC(=S)Nc3ccccc3)cc2)cc1 [Compound 1b, N-(Phenylcarbamothioyl)-4-[5-(4-methylphenyl)-3-(trifluoromethyl)-1H-pyrazol-1-yl] benzene-sulfonamide]
inhibition at 100 µM [5, 14]: 53.5%
melting point: 251 to 252 °C

Structure (SMILES): Cc1ccc(-c2cc(C(F)(F)F)nn2-c2ccc(S(=O)(=O)NC(=S)NCc3ccccc3)cc2)cc1 [Compound 1c, N-(Benzylcarbamothioyl)-4-[5-(4-methylphenyl)-3-(trifluoromethyl)-1H-pyrazol-1-yl] benzene-sulfonamide]
IC50 [5]: 36.2 ± 1.2 µM
inhibition at 100 µM [5, 14]: 82.3%
melting point: 237 to 240 °C

Structure (SMILES): Cc1ccc(-c2cc(C(F)(F)F)nn2-c2ccc(S(=O)(=O)NC(=S)Nc3ccc([N+](=O)[O-])cc3)cc2)cc1 [Compound 1d]
Swelling in thickness ± SEM ([3]; 50 mg/kg per os, 90 min): 70.0 ± 4.7 × 10^−2 mm
percent inhibitory activity ([3]; 50 mg/kg per os, 90 min): 2.7%
Swelling in thickness ± SEM ([3]; 50 mg/kg per os, 180 min): 77.0 ± 2.0 × 10^−2 mm
percent inhibitory activity ([3]; 50 mg/kg per os, 180 min): 16.3%
Swelling in thickness ± SEM ([3]; 50 mg/kg per os, 270 min): 112.0 ± 7.3 × 10^−2 mm
percent inhibitory activity ([3]; 50 mg/kg per os, 270 min): 7.4%
Swelling in thickness ± SEM ([3]; 50 mg/kg per os, 360 min): 125.0 ± 5.9 × 10^−2 mm
percent inhibitory activity ([3]; 50 mg/kg per os, 360 min): 3.1%
Swelling in thickness ± SEM ([3]; 100 mg/kg per os, 90 min): 95.9 ± 10.2 × 10^−2 mm
Swelling in thickness ± SEM ([3]; 100 mg/kg per os, 270 min): 110.7 ± 11.0 × 10^−2 mm
percent inhibitory activity ([3]; 100 mg/kg per os, 270 min): 8.5%
Swelling in thickness ± SEM ([3]; 100 mg/kg per os, 360 min): 88.7 ± 9.3 × 10^−2 mm
percent inhibitory activity ([3]; 100 mg/kg per os, 360 min): 31.2%
Swelling in thickness ± SEM ([3]; 200 mg/kg per os, 90 min): 45.9 ± 10.9 × 10^−2 mm
percent inhibitory activity ([3]; 200 mg/kg per os, 90 min): 36.2%
Swelling in thickness ± SEM ([3]; 200 mg/kg per os, 180 min): 65.3 ± 6.4 × 10^−2 mm
percent inhibitory activity ([3]; 200 mg/kg per os, 180 min): 29.0%
Swelling in thickness ± SEM ([3]; 200 mg/kg per os, 270 min): 98.2 ± 9.8 × 10^−2 mm
percent inhibitory activity ([3]; 200 mg/kg per os, 270 min): 19.0%
Swelling in thickness ± SEM ([3]; 200 mg/kg per os, 360 min): 91.0 ± 3.3 × 10^−2 mm
percent inhibitory activity ([3]; 200 mg/kg per os, 360 min): 29.5%
anti-inflammatory activity (in words) ([3]; all doses, all measurement intervals): moderate-to-good
Writhing test (% inh.) ([1]; 100 mg/kg oral): 19.5%
Writhing test (Mean ± SEM) ([1]; 100 mg/kg oral, writhings counted 10 min from 5 min after acetic acid): 14.0 ± 3.0
Ulcer score (stomach; 200 mg/kg p.o., animals with lesions/animals): 0/5
Lipid peroxidation ([2]; 100 mg/kg, 8 h after analgesic test): 429.2 ± 23.2 nmol TBARS/g wet weight
IC50 [5]: 46 µM and 45.5 µM
inhibition at 100 µM [5, 14]: 68%
melting point: 245 to 248 °C

Second part, the molecule after the results:

inhibition at 100 µM [5, 14]: 8.2%
melting point: 282 °C
Structure (SMILES): CCN1C(=O)CS/C1=N\S(=O)(=O)c1ccc(-n2nc(C(F)(F)F)cc2-c2ccc(C)cc2)cc1 [Compound 2a, N-(3-Ethyl-4-oxo-1,3-thiazolidin-2-yldene)-4-[5-(4-methylphenyl)-3-(trifluoromethyl)-1H-pyrazol-1-yl]benzenesulfonamide]

inhibition at 100 µM [5, 14]: 9.4%
melting point: 234 to 235 °C
Structure (SMILES): Cc1ccc(-c2cc(C(F)(F)F)nn2-c2ccc(S(=O)(=O)/N=C3\SCC(=O)N3c3ccc(C(F)(F)F)cc3)cc2)cc1 [Compound 2e, N-[3-(4-Trifluoromethylphenyl)-4-oxo-1,3-thiazolidin-2-yldene)-4-[5-(4-methylphenyl)-3-(trifluoro-methyl)-1H-pyrazol-1-yl]benzenesulfonamide]
